Test results from PubChem BioAssay AID1963852 (Molecular Pharmacology Branch, DTP, NCI, 2024).

Test system: 282377-053-R-J1-PDC complex spheroid viability
Experiment: Anticancer human tumor 282377-053-R-J1-PDC patient-derived colon adenocarcinoma cell line growth inhibition [POLQ]
Conditions: for IC50: curve of first compound; for viability, T/C: stronger effect = lower value
Procedure, shortened: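 Growth inhibition in 3D: complex spheroids (tumor PDC, HUVEC, MSC) treated with POLQ inhibitor combinations; where Cmax unknown, highest tested concentration 10 microM, except SN-38 at 1 microM.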

[1] = second compound 0.0316 µM, first compound 0.0316 µM
[2] = second compound 0.0316 µM, first compound 0.1 µM
[3] = second compound 0.0316 µM, first compound 0.316 µM
[4] = second compound 0.0316 µM, first compound 1 µM
[5] = second compound 0.0316 µM, first compound 3.16 µM
[6] = second compound 0.0316 µM, first compound 10 µM
[7] = second compound 0.1 µM, first compound 0.0316 µM
[8] = second compound 0.1 µM, first compound 0.1 µM
[9] = second compound 0.1 µM, first compound 0.316 µM
[10] = second compound 0.1 µM, first compound 1 µM
[11] = second compound 0.1 µM, first compound 3.16 µM
[12] = second compound 0.1 µM, first compound 10 µM
[13] = second compound 0.316 µM, first compound 0.0316 µM
[14] = second compound 0.316 µM, first compound 0.1 µM
[15] = second compound 0.316 µM, first compound 0.316 µM
[16] = second compound 0.316 µM, first compound 1 µM
[17] = second compound 0.316 µM, first compound 3.16 µM
[18] = second compound 0.316 µM, first compound 10 µM
[19] = second compound 1 µM, first compound 0.0316 µM
[20] = second compound 1 µM, first compound 0.1 µM
[21] = second compound 1 µM, first compound 0.316 µM
[22] = second compound 1 µM, first compound 1 µM
[23] = second compound 1 µM, first compound 3.16 µM
[24] = second compound 1 µM, first compound 10 µM
[25] = second compound 3.16 µM, first compound 0.0316 µM
[26] = second compound 3.16 µM, first compound 0.1 µM
[27] = second compound 3.16 µM, first compound 0.316 µM
[28] = second compound 3.16 µM, first compound 1 µM
[29] = second compound 3.16 µM, first compound 3.16 µM
[30] = second compound 3.16 µM, first compound 10 µM
[31] = second compound 10 µM, first compound 0.0316 µM
[32] = second compound 10 µM, first compound 0.1 µM
[33] = second compound 10 µM, first compound 0.316 µM
[34] = second compound 10 µM, first compound 1 µM
[35] = second compound 10 µM, first compound 3.16 µM
[36] = second compound 10 µM, first compound 10 µM
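Further: spheroids exposed to compounds for seven days.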
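Wherever viability, T/C is given: 100% = DMSO vehicle control viability.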

C#Cc1c(F)ccc2cc(O)cc(-c3ncc4c(N5CC6CCC(C5)N6)nc(OCC56CCCN5CC(F)C6)nc4c3F)c12 (stereo not given) + Nc1ccc(C#CCN(C(=O)Cc2ncc(C(F)(F)F)cc2C(F)(F)F)c2ccc(F)cc2)nn1
IC50 (second compound 0.0316 µM): > 10 µM
IC50 (second compound 0.1 µM): > 10 µM
IC50 (second compound 0.316 µM): > 10 µM
IC50 (second compound 1 µM): > 10 µM
IC50 (second compound 3.16 µM): > 10 µM
IC50 (second compound 10 µM): > 10 µM
viability, T/C [1]: 101%
viability, T/C [2]: 114%
viability, T/C [3]: 91.2%
viability, T/C [4]: 97.5%
viability, T/C [5]: 99.8%
viability, T/C [6]: 84.8%
viability, T/C [7]: 99.8%
viability, T/C [8]: 108%
viability, T/C [9]: 83.5%
viability, T/C [10]: 116%
viability, T/C [11]: 99.5%
viability, T/C [12]: 79.6%
viability, T/C [13]: 97.1%
viability, T/C [14]: 106%
viability, T/C [15]: 94.9%
viability, T/C [16]: 85.2%
viability, T/C [17]: 118%
viability, T/C [18]: 110%
viability, T/C [19]: 93%
viability, T/C [20]: 121%
viability, T/C [21]: 105%
viability, T/C [22]: 92.7%
viability, T/C [23]: 94.7%
viability, T/C [24]: 96.8%
viability, T/C [25]: 121%
viability, T/C [26]: 120%
viability, T/C [27]: 94%
viability, T/C [28]: 107%
viability, T/C [29]: 90.2%
viability, T/C [30]: 96.3%
viability, T/C [31]: 117%
viability, T/C [32]: 107%
viability, T/C [33]: 109%
viability, T/C [34]: 112%
viability, T/C [35]: 90.8%
viability, T/C [36]: 119%

C=CC(=O)N1CCN(c2nc(=O)n(-c3c(C)ccnc3C(C)C)c3nc(-c4c(O)cccc4F)c(F)cc23)C(C)C1 (stereo not given) + Nc1ccc(C#CCN(C(=O)Cc2ncc(C(F)(F)F)cc2C(F)(F)F)c2ccc(F)cc2)nn1
IC50 (second compound 0.0316 µM): > 10 µM
IC50 (second compound 0.1 µM): > 10 µM
IC50 (second compound 0.316 µM): > 10 µM
IC50 (second compound 1 µM): > 10 µM
IC50 (second compound 3.16 µM): > 10 µM
IC50 (second compound 10 µM): > 10 µM
viability, T/C [1]: 95%
viability, T/C [2]: 107%
viability, T/C [3]: 94%
viability, T/C [4]: 90.8%
viability, T/C [5]: 104%
viability, T/C [6]: 97.5%
viability, T/C [7]: 95.3%
viability, T/C [8]: 107%
viability, T/C [9]: 91%
viability, T/C [10]: 99.7%
viability, T/C [11]: 113%
viability, T/C [12]: 83.4%
viability, T/C [13]: 90.4%
viability, T/C [14]: 88.6%
viability, T/C [15]: 100%
viability, T/C [16]: 98.7%
viability, T/C [17]: 101%
viability, T/C [18]: 94.9%
viability, T/C [19]: 108%
viability, T/C [20]: 90.9%
viability, T/C [21]: 111%
viability, T/C [22]: 91.3%
viability, T/C [23]: 97.7%
viability, T/C [24]: 86.9%
viability, T/C [25]: 106%
viability, T/C [26]: 100%
viability, T/C [27]: 92.8%
viability, T/C [28]: 108%
viability, T/C [29]: 91%
viability, T/C [30]: 87.9%
viability, T/C [31]: 112%
viability, T/C [32]: 107%
viability, T/C [33]: 114%
viability, T/C [34]: 114%
viability, T/C [35]: 98.7%
viability, T/C [36]: 106%

CC(C)n1c(=O)n(C)c2cnc3cc(F)c(-c4ccc(OCCCN5CCCCC5)nc4)cc3c21 + Nc1ccc(C#CCN(C(=O)Cc2ncc(C(F)(F)F)cc2C(F)(F)F)c2ccc(F)cc2)nn1
IC50 (second compound 0.0316 µM): > 10 µM
IC50 (second compound 0.1 µM): > 10 µM
IC50 (second compound 0.316 µM): > 10 µM
IC50 (second compound 1 µM): > 10 µM
IC50 (second compound 3.16 µM): > 10 µM
IC50 (second compound 10 µM): > 10 µM
viability, T/C [1]: 101%
viability, T/C [2]: 105%
viability, T/C [3]: 107%
viability, T/C [4]: 103%
viability, T/C [5]: 110%
viability, T/C [6]: 92.7%
viability, T/C [7]: 117%
viability, T/C [8]: 113%
viability, T/C [9]: 108%
viability, T/C [10]: 108%
viability, T/C [11]: 97.2%
viability, T/C [12]: 101%
viability, T/C [13]: 111%
viability, T/C [14]: 91.5%
viability, T/C [15]: 109%
viability, T/C [16]: 104%
viability, T/C [17]: 106%
viability, T/C [18]: 94.5%
viability, T/C [19]: 116%
viability, T/C [20]: 105%
viability, T/C [21]: 103%
viability, T/C [22]: 112%
viability, T/C [23]: 118%
viability, T/C [24]: 102%
viability, T/C [25]: 105%
viability, T/C [26]: 106%
viability, T/C [27]: 103%
viability, T/C [28]: 115%
viability, T/C [29]: 108%
viability, T/C [30]: 111%
viability, T/C [31]: 121%
viability, T/C [32]: 119%
viability, T/C [33]: 114%
viability, T/C [34]: 128%
viability, T/C [35]: 127%
viability, T/C [36]: 122%

CCc1cc2c(N3CCc4c(cc(Cn5ccnc5)cc4-c4cn(C)nc4C(F)(F)F)C3=O)cc(C)nc2c(OC)n1 + Nc1ccc(C#CCN(C(=O)Cc2ncc(C(F)(F)F)cc2C(F)(F)F)c2ccc(F)cc2)nn1
IC50 (second compound 0.0316 µM): > 10 µM
IC50 (second compound 0.1 µM): > 10 µM
IC50 (second compound 0.316 µM): > 10 µM
IC50 (second compound 1 µM): > 10 µM
IC50 (second compound 3.16 µM): > 10 µM
IC50 (second compound 10 µM): > 10 µM
viability, T/C [1]: 83%
viability, T/C [2]: 81.5%
viability, T/C [3]: 89%
viability, T/C [4]: 98.2%
viability, T/C [5]: 120%
viability, T/C [6]: 99.3%
viability, T/C [7]: 84.8%
viability, T/C [8]: 82.8%
viability, T/C [9]: 82.3%
viability, T/C [10]: 75.1%
viability, T/C [11]: 93.4%
viability, T/C [12]: 115%
viability, T/C [13]: 96.6%
viability, T/C [14]: 86.2%
viability, T/C [15]: 89.4%
viability, T/C [16]: 82.3%
viability, T/C [17]: 95.9%
viability, T/C [18]: 96.1%
viability, T/C [19]: 82.1%
viability, T/C [20]: 88.7%
viability, T/C [21]: 79.8%
viability, T/C [22]: 96%
viability, T/C [23]: 96.7%
viability, T/C [24]: 107%
viability, T/C [25]: 95.6%
viability, T/C [26]: 91.3%
viability, T/C [27]: 85%
viability, T/C [28]: 106%
viability, T/C [29]: 90.5%
viability, T/C [30]: 108%
viability, T/C [31]: 108%
viability, T/C [32]: 102%
viability, T/C [33]: 125%
viability, T/C [34]: 107%
viability, T/C [35]: 113%
viability, T/C [36]: 115%

COc1cc2cc(C(=O)CCC(=O)O)sc2cc1OC + Nc1ccc(C#CCN(C(=O)Cc2ncc(C(F)(F)F)cc2C(F)(F)F)c2ccc(F)cc2)nn1
IC50 (second compound 0.0316 µM): > 10 µM
IC50 (second compound 0.1 µM): > 10 µM
IC50 (second compound 0.316 µM): > 10 µM
IC50 (second compound 1 µM): > 10 µM
IC50 (second compound 3.16 µM): > 10 µM
IC50 (second compound 10 µM): > 10 µM
viability, T/C [1]: 92.5%
viability, T/C [2]: 94.8%
viability, T/C [3]: 115%
viability, T/C [4]: 102%
viability, T/C [5]: 92.2%
viability, T/C [6]: 95.2%
viability, T/C [7]: 112%
viability, T/C [8]: 105%
viability, T/C [9]: 81.5%
viability, T/C [10]: 102%
viability, T/C [11]: 94.5%
viability, T/C [12]: 125%
viability, T/C [13]: 103%
viability, T/C [14]: 95.3%
viability, T/C [15]: 89.9%
viability, T/C [16]: 87.3%
viability, T/C [17]: 102%
viability, T/C [18]: 79.9%
viability, T/C [19]: 103%
viability, T/C [20]: 84.5%
viability, T/C [21]: 94%
viability, T/C [22]: 104%
viability, T/C [23]: 107%
viability, T/C [24]: 97.3%
viability, T/C [25]: 109%
viability, T/C [26]: 112%
viability, T/C [27]: 103%
viability, T/C [28]: 112%
viability, T/C [29]: 100%
viability, T/C [30]: 90.1%
viability, T/C [31]: 126%
viability, T/C [32]: 116%
viability, T/C [33]: 123%
viability, T/C [34]: 107%
viability, T/C [35]: 117%
viability, T/C [36]: 104%
